Results published in patent US20250154152A1, “INHIBITORS OF NAEGLERIA FOWLERI” (Wisconsin Alumni Research Foundation, priority 2023, published 2025).

What follows are molecules tested on N. fowleri strain Nf69 (ATCC 30215) trophozoites (assay: Determination of EC50 values against Naegleria fowleri (growth inhibition, CellTiter Glo, 48 h)). Details: ATCC30215, 48 h, read-out: EC50 uM against N. fowleri.
Type: cell-based
Summary of the method: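 Axenic Nf69 trophozoites in Nelson's complete medium with 10% FBS exposed to compound, initially 20–0.375 μM, for 48 h at 37 °C, 5% CO2. Viability read by CellTiter-Glo luminescence; % growth inhibition versus controls, triplicate averages fitted for EC50, with lower ranges used for very potent compounds.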

Compound | EC50
CC(C)OCCN1CCC[C@@H]2c3nc4cc(Cl)c(Cl)cc4c(=O)n3CC[C@H]21 (racemic) [trans-7z, (±)-(4aR,13bS)-10,11-dichloro-4-(2-isopropoxyethyl)-1,2,3,4,4a,5,6,13b-octahydro-8H-[1,6]naphthyridino[5,6-b]quinazolin-8-one] | 0.0001 to 0.1 µM

Same assay, conditions: ATCC30215, N. fowleri Nf69 trophozoites, 48 h culture, 37° C., CellTiter Glo luminescence, read-out: EC50 uM against N. fowleri

Compound | EC50
O=c1c2cc(Cl)c(Cl)cc2nc2n1CC[C@@H]1[C@@H]2CCCN1Cc1cnccn1 (racemic) [trans-7x, (±)-(4aR,13bS)-10,11-dichloro-4-(pyrazin-2-ylmethyl)-1,2,3,4,4a,5,6,13b-octahydro-8H-[1,6]naphthyridino[5,6-b]quinazolin-8-one] | 0.0001 to 0.1 µM
O=c1c2cc(Cl)c(Cl)cc2nc2n1CC[C@@H]1[C@@H]2CCCN1CCN1CCOCC1 (racemic) [trans-7y, (±)-(4aR,13bS)-10,11-dichloro-4-(2-morpholinoethyl)-1,2,3,4,4a,5,6,13b-octahydro-8H-[1,6]naphthyridino[5,6-b]quinazolin-8-one] | 0.0001 to 0.1 µM
Cc1ccc(-c2ccc3nc4n(c(=O)c3c2)CC[C@@H]2[C@@H]4CCCN2C)cn1 (racemic) [trans-9a, (±)-(4aR,13bS)-4-methyl-10-(6-methylpyridin-3-yl)-1,2,3,4,4a,5,6,13b-octahydro-8H-[1,6]naphthyridino[5,6-b]quinazolin-8-one] | > 10 µM
CN1CCC[C@@H]2c3nc4cc(-c5ccccc5)c(Cl)cc4c(=O)n3CC[C@H]21 (racemic) [trans-9b, (±)-(4aR,13bS)-10-chloro-4-methyl-11-phenyl-1,2,3,4,4a,5,6,13b-octahydro-8H-[1,6]naphthyridino[5,6-b]quinazolin-8-one] | 1 to 10 µM
COc1ccc2c(=O)n3c(nc2c1)[C@H]1CCCN(C)[C@@H]1CC3 (racemic) [trans-50, (±)-(4aR,13bS)-11-methoxy-4-methyl-1,2,3,4,4a,5,6,13b-octahydro-8H-[1,6]naphthyridino[5,6-b]quinazolin-8-one] | 1 to 10 µM
COc1cc2nc3n(c(=O)c2cc1Cl)CC[C@@H]1[C@@H]3CCCN1CC(C)C (single isomer, unassigned) [trans-10g-ent-1] | 0.1 to 1 µM
COc1cc2nc3n(c(=O)c2cc1Cl)CC[C@H]1[C@H]3CCCN1CC(C)C (single isomer, unassigned) [trans-10h-ent-2] | 0.0001 to 0.1 µM
COc1cc2nc3n(c(=O)c2cc1Cl)CC[C@@H]1[C@@H]3CCCN1CC1COC1 (single isomer, unassigned) [trans-10i-ent-1] | 0.1 to 1 µM
COc1cc2nc3n(c(=O)c2cc1Cl)CC[C@H]1[C@H]3CCCN1CC1COC1 (single isomer, unassigned) [trans-10j-ent-2] | 0.0001 to 0.1 µM
CC(C)OCCN1CCC[C@@H](c2nc3cc(Cl)c(Cl)cc3c(=O)n2C)C1 [Compound R-14aa, (R)-6,7-dichloro-2-(1-(2-isopropoxyethyl)piperidin-3-yl)-3-methylquinazolin-4(3H)-one] | 1 to 10 µM
Cn1c([C@@H]2CCCN(CCN3CCOCC3)C2)nc2cc(Cl)c(Cl)cc2c1=O [Compound R-14bb, (R)-6,7-dichloro-3-methyl-2-(1-(2-morpholinoethyl)piperidin-3-yl)quinazolin-4(3H)-one] | 1 to 10 µM
Cn1c([C@@H]2CCCN(CCN3CCCC3)C2)nc2cc(Cl)c(Cl)cc2c1=O [Compound R-14dd, (R)-6,7-dichloro-3-methyl-2-(1-(2-(pyrrolidin-1-yl)ethyl)piperidin-3-yl)quinazolin-4(3H)-one] | 0.1 to 1 µM
Cn1c([C@H]2CCCN(CCN3CCCC3)C2)nc2cc(Cl)c(Cl)cc2c1=O [Compound S-14cc, (S)-6,7-dichloro-3-methyl-2-(1-(2-(pyrrolidin-1-yl)ethyl)piperidin-3-yl)quinazolin-4(3H)-one] | > 10 µM

The remaining lines, values ahead:

EC50 | Compound
> 10 µM | Cn1c(C2CN(CC3COC3)C2)nc2cc(Cl)c(Cl)cc2c1=O [Compound 14i, 6,7-dichloro-3-methyl-2-(1-(oxetan-3-ylmethyl)azetidin-3-yl)quinazolin-4(3H)-one]
> 10 µM | CC(C)N1CCC[C@@H](c2nc3cc(Cl)c(Cl)cc3c(=O)n2C)C1 [Compound R-14b, (R)-6,7-dichloro-2-(1-isopropylpiperidin-3-yl)-3-methylquinazolin-4(3H)-one]
> 10 µM | Cn1c([C@@H]2CCCN(CC3CCOCC3)C2)nc2cc(Cl)c(Cl)cc2c1=O [Compound R-14d, (R)-6,7-dichloro-3-methyl-2-(1-((tetrahydro-2H-pyran-4-yl)methyl)piperidin-3-yl)quinazolin-4(3H)-one]
0.1 to 1 µM | Cn1c([C@@H]2CCCN(CC3COC3)C2)nc2cc(Cl)c(Cl)cc2c1=O [Compound R-14f, (R)-6,7-dichloro-3-methyl-2-(1-(oxetan-3-ylmethyl)piperidin-3-yl)quinazolin-4(3H)-one]
> 10 µM | CC(C)CN1CCC[C@@H](c2nc3cc(Cl)c(Cl)cc3c(=O)n2C)C1 [Compound R-14g, (R)-6,7-dichloro-2-(1-isobutylpiperidin-3-yl)-3-methylquinazolin-4(3H)-one]
> 10 µM | Cn1c([C@@H]2CCCN(CC(C)(C)O)C2)nc2cc(Cl)c(Cl)cc2c1=O [Compound R-14h, (R)-6,7-dichloro-2-(1-(2-hydroxy-2-methylpropyl)piperidin-3-yl)-3-methylquinazolin-4(3H)-one]
1 to 10 µM | Cn1c([C@@H]2CCN(CC3COC3)C2)nc2cc(Cl)c(Cl)cc2c1=O [Compound R-14j, (R)-6,7-dichloro-3-methyl-2-(1-(oxetan-3-ylmethyl)pyrrolidin-3-yl)quinazolin-4(3H)-one]
> 10 µM | COCCn1c([C@@H]2CCCN(CC3COC3)C2)nc2cc(Cl)c(Cl)cc2c1=O [Compound R-14k, (R)-6,7-dichloro-3-(2-methoxyethyl)-2-(1-(oxetan-3-ylmethyl)piperidin-3-yl)quinazolin-4(3H)-one]
> 10 µM | CN(C)CCn1c([C@@H]2CCCN(CC3COC3)C2)nc2cc(Cl)c(Cl)cc2c1=O [Compound R-14l, (R)-6,7-dichloro-3-(2-(dimethylamino)ethyl)-2-(1-(oxetan-3-ylmethyl)piperidin-3-yl)quinazolin-4(3H)-one]
> 10 µM | O=c1c2cc(Cl)c(Cl)cc2nc([C@@H]2CCCN(CC3COC3)C2)n1CCN1CCOCC1 [Compound R-14m, (R)-6,7-dichloro-3-(2-morpholinoethyl)-2-(1-(oxetan-3-ylmethyl)piperidin-3-yl)quinazolin-4(3H)-one]
> 10 µM | Cn1c([C@@H]2CCCN(CC3COC3)C2)nc2cnc(Cl)cc2c1=O [Compound R-14n, (R)-6-chloro-3-methyl-2-(1-(oxetan-3-ylmethyl)piperidin-3-yl)pyrido[3,4-d]pyrimidin-4(3H)-one]
> 10 µM | Cn1c([C@@H]2CCCN(CC3COC3)C2)nc2ccc(C#N)cc2c1=O [Compound R-14o, (R)-3-methyl-2-(1-(oxetan-3-ylmethyl)piperidin-3-yl)-4-oxo-3,4-dihydroquinazoline-6-carbonitrile]
> 10 µM | Cn1c([C@@H]2CCCN(CC3COC3)C2)nc2ccc(Cl)cc2c1=O [Compound R-14p, (R)-6-chloro-3-methyl-2-(1-(oxetan-3-ylmethyl)piperidin-3-yl)quinazolin-4(3H)-one]
> 10 µM | Cn1c([C@@H]2CCCN(CC3COC3)C2)nc2ccc(F)cc2c1=O [Compound R-14q, (R)-6-fluoro-3-methyl-2-(1-(oxetan-3-ylmethyl)piperidin-3-yl)quinazolin-4(3H)-one]
> 10 µM | Cn1c([C@@H]2CCCN(CC3COC3)C2)nc2cc(F)ccc2c1=O [Compound R-14r, (R)-7-fluoro-3-methyl-2-(1-(oxetan-3-ylmethyl)piperidin-3-yl)quinazolin-4(3H)-one]
> 10 µM | COc1ccc2nc([C@@H]3CCCN(CC4COC4)C3)n(C)c(=O)c2c1 [Compound R-14s, (R)-6-methoxy-3-methyl-2-(1-(oxetan-3-ylmethyl)piperidin-3-yl)quinazolin-4(3H)-one]
> 10 µM | Cn1c([C@@H]2CCCN(CC3COC3)C2)nc2ccc(C(F)(F)F)cc2c1=O [Compound R-14t, (R)-3-methyl-2-(1-(oxetan-3-ylmethyl)piperidin-3-yl)-6-(trifluoromethyl)quinazolin-4(3H)-one]
> 10 µM | Cn1c([C@@H]2CCCN(Cc3ccncc3)C2)nc2cc(Cl)c(Cl)cc2c1=O [Compound R-14u, (R)-6,7-dichloro-3-methyl-2-(1-(pyridin-4-ylmethyl)piperidin-3-yl)quinazolin-4(3H)-one]
> 10 µM | Cn1c([C@@H]2CCCN(Cc3cccnc3)C2)nc2cc(Cl)c(Cl)cc2c1=O [Compound R-14v, (R)-6,7-dichloro-3-methyl-2-(1-(pyridin-3-ylmethyl)piperidin-3-yl)quinazolin-4(3H)-one]
> 10 µM | Cn1c([C@@H]2CCCN(Cc3ccccn3)C2)nc2cc(Cl)c(Cl)cc2c1=O [Compound R-14w, (R)-6,7-dichloro-3-methyl-2-(1-(pyridin-2-ylmethyl)piperidin-3-yl)quinazolin-4(3H)-one]
> 10 µM | Cn1c([C@@H]2CCCN(Cc3cnccn3)C2)nc2cc(Cl)c(Cl)cc2c1=O [Compound R-14x, (R)-6,7-dichloro-3-methyl-2-(1-(pyrazin-2-ylmethyl)piperidin-3-yl)quinazolin-4(3H)-one]
> 10 µM | Cn1c([C@@H]2CCCN(CCO)C2)nc2cc(Cl)c(Cl)cc2c1=O [Compound R-14z, (R)-6,7-dichloro-2-(1-(2-hydroxyethyl)piperidin-3-yl)-3-methylquinazolin-4(3H)-one]
> 10 µM | CC(C)N1CCC[C@H](c2nc3cc(Cl)c(Cl)cc3c(=O)n2C)C1 [Compound S-14a, (S)-6,7-dichloro-2-(1-isopropylpiperidin-3-yl)-3-methylquinazolin-4(3H)-one]
> 10 µM | Cn1c([C@H]2CCCN(CC3CCOCC3)C2)nc2cc(Cl)c(Cl)cc2c1=O [Compound S-14c, (S)-6,7-dichloro-3-methyl-2-(1-((tetrahydro-2H-pyran-4-yl)methyl)piperidin-3-yl)quinazolin-4(3H)-one]
